According to ChEMBL document CHEMBL4665662, “Designed P-glycoprotein inhibitors with triazol-tetrahydroisoquinoline-core increase doxorubicin-induced mortality in multidrug resistant K562/A02 cells” (Bioorg Med Chem, 2019):
Calls of active or inactive are those of the source. The calls are words filed in the database; no cut-off is given here.

Experiments:
[1] = tested on: K562/A02; assay: Cytotoxicity against human K562/A02 cells overexpressing P-gp assessed as cell growth inhibition after 48 hrs by MTT assay; type: cell-based; details: K562/A02, 48 h
[2] = tested on: K562/A02; assay: (§1) Reversal of P-gp mediated multidrug resistance in human K562/A02 cells overexpressing P-gp assessed as fold reduction in doxorubicin IC50 at 5 uM after 48 hrs by MTT assay relative to control; type: cell-based
[3] = tested on: K562; assay: Cytotoxicity against human K562 cells assessed as cell growth inhibition after 48 hrs by MTT assay; type: cell-based; details: K562, 48 h
[4] = tested on: K562/A02; assay: Inhibition of P-gp overexpressed in human K562/A02 cells assessed as increase doxorubicin accumulation at 5 uM preincubated for 60 mins followed by doxorubicin addition and measured after 90 mins by fluorescence spectrophotometry analysis; type: cell-based
[5] = tested on: K562/A02; assay: Inhibition of P-gp overexpressed in human K562/A02 cells assessed as increase in doxorubicin accumulation preincubated for 60 mins followed by doxorubicin addition and measured after 90 mins by fluorescence spectrophotometry analysis; type: cell-based; details: dose microM 0.5-5, time 60.0 min
[6] = Reversal of P-gp mediated multidrug resistance in human K562/A02 cells overexpressing P-gp assessed as potentiation of doxorubicin-induced mortality by measuring reduction in doxorubicin IC50 measured after 48 hrs by MTT assay; type: cell-based; details: K562/A02, 48 h
[7] = tested on: K562/A02; assay: Effect on P-gp expression in human K562/A02 cells overexpressing P-gp at 0.5 to 5 uM after 72 hrs by Western blot analysis; type: functional, cell-based; details: dose microM 0.5-5, time 72.0 hrs
[8] = tested on: K562/A02; assay: Inhibition of P-gp overexpressed in human K562/A02 cells assessed as increase in doxorubicin accumulation at 0.1 uM preincubated for 60 mins followed by doxorubicin addition and measured after 90 mins by fluorescence spectrophotometry analysis; type: cell-based
[9] = tested on: K562/A02; assay: as §1, with “uM preincubated for 24 hrs followed by compound washout and 12 hrs later incubated with doxorubicin and measured” for “uM”; type: cell-based
[10] = tested on: K562/A02; assay: Reversal of P-gp mediated multidrug resistance in human K562/A02 cells overexpressing P-gp assessed as time duration of action for reversal of doxorubicin-induced cytotoxicity at 5 uM preincubated for 24 hrs followed by compound washout and later incubated with doxorubicin and measured after 48 hrs by MTT assay; type: cell-based
[11] = tested on: K562/A02; assay: Reversal of P-gp mediated multidrug resistance in human K562/A02 cells overexpressing P-gp assessed as inhibition of Rh123 efflux by measuring remaining mean fluorescence intensity at 2 uM pretreated with Rh123 for 60 mins followed by incubation with compound for 90 mins by FACSCalibur flow cytometry analysis; type: cell-based
[12] = tested on: K562/A02; assay: Reversal of P-gp mediated multidrug resistance in human K562/A02 cells overexpressing P-gp assessed as potentiation of doxorubicin-induced mortality by measuring reduction in doxorubicin IC50 at 10 nM measured after 48 hrs by MTT assay; type: cell-based
[13] = tested on: K562/A02; assay: (§2) Reversal of P-gp mediated multidrug resistance in human K562/A02 cells overexpressing P-gp assessed as fold reduction in doxorubicin IC50 at 5 uM preincubated for 24 hrs followed by compound washout and later incubated with doxorubicin and measured after 48 hrs by MTT assay relative to control; type: cell-based
[14] = tested on: K562/A02; assay: as §2, with “washout and 24 hrs later incubated” for “washout and later incubated”; type: cell-based
[15] = tested on: K562/A02; assay: Reversal of P-gp mediated multidrug resistance in human K562/A02 cells overexpressing P-gp assessed as fold reduction in doxorubicin IC50 at 5 uM preincubated for 24 hrs followed by compound washout and 6 hrs later incubated with doxorubicin and measured after 48 hrs by MTT assay relative to control; type: cell-based

Structure (SMILES) | IC50 [1] [µM] | Ratio IC50 [2] | IC50 ([3]; read-out: IC50) [µM] | also measured
COc1cc2c(cc1OC)CN(CCn1cc(CNc3ccccc3NC(=O)c3ccncc3)nn1)CC2 | > 100 | 3.74 |  | 
COc1cc2c(cc1OC)CN(CCc1ccc(-n3cc(CNc4ccccc4NC(=O)c4cccs4)nn3)cc1)CC2 | 60.7 | 21.2 | > 100 | 
COc1cc2c(cc1OC)CN(CCn1cc(CNc3ccccc3NC(=O)c3sccc3C)nn1)CC2 | > 100 | 3.09 |  | 
COc1cc2c(cc1OC)CN(CCc1ccc(-n3cc(CNc4ccccc4NC(=O)c4ccncc4)nn3)cc1)CC2 | > 100 | 1.09 | > 100 | 
COc1cc2c(cc1OC)CN(CCn1cc(CNc3ccccc3NC(=O)c3cccs3)nn1)CC2 | > 100 | 2.03 |  | 
COc1cc2c(cc1OC)CN(CCc1ccc(-n3cc(CNc4ccccc4NC(=O)c4cnc5ccccc5c4)nn3)cc1)CC2 | > 100 | 3.82 | > 100 | 
COc1ccc(CCN(C)CCCC(C#N)(c2ccc(OC)c(OC)c2)C(C)C)cc1OC (stereo unspecified) | 59.2 |  |  | IC50 [3]: 68.3 µM; inhibition [4]: Active; inhibition [5]: Dose-dependent effect
COc1cc2c(cc1OC)CN(CCn1cc(CNc3ccccc3NC(=O)c3ccc(Cl)s3)nn1)CC2 | > 100 | 3.38 |  | 
COc1cccc2c1C(=O)c1c(O)c3c(c(O)c1C2=O)C[C@@](O)(C(=O)CO)C[C@@H]3O[C@H]1C[C@H](N)[C@H](O)[C@H](C)O1 [DOXORUBICIN] | 55.5 |  |  | 
COc1cc2c(cc1OC)CN(CCn1cc(CNc3ccccc3NC(=O)c3cc4ccccc4[nH]3)nn1)CC2 | > 100 | 4.16 |  | 
COc1cc2c(cc1OC)CN(CCc1ccc(-n3cc(CNc4ccccc4NC(=O)c4cc5ccccc5[nH]4)nn3)cc1)CC2 | > 100 | 6.57 | > 100 | 
COc1cc2c(cc1OC)CN(CCn1cc(CNc3ccccc3NC(=O)c3ccsc3)nn1)CC2 | > 100 | 2.27 |  | 
COc1cc2c(cc1OC)CN(CCc1ccc(-n3cc(CNc4ccccc4NC(=O)c4ccc(Cl)s4)nn3)cc1)CC2 | 63.2 | 42 | > 100 | EC50 [6]: 46.8 nM; Activity [7]: inactive; inhibition [8]: Active; Ratio IC50 [9]: 3.29; TIME [10]: > 24 h; Activity [11]: > 50%; inhibition [12]: Active; Ratio IC50 [13]: 17.1; inhibition [4]: Active; inhibition [5]: Dose-dependent effect; Ratio IC50 [14]: 1.27; Ratio IC50 [15]: 7.08
COc1cc2c(cc1OC)CN(CCc1ccc(-n3cc(CNc4ccccc4NC(=O)c4ccccn4)nn3)cc1)CC2 | 52.1 | 11.8 | 45.1 | 
COc1cc2c(cc1OC)CN(CCc1ccc(-n3cc(CNc4ccccc4NC(=O)c4cccnc4Cl)nn3)cc1)CC2 | 47 | 2.79 | 42.7 | 
COc1cc2c(cc1OC)CN(CCn1cc(CNc3ccccc3NC(=O)c3ccc(C)s3)nn1)CC2 | > 100 | 2.86 |  | 
COc1cc2c(cc1OC)CN(CCc1ccc(-n3cc(CNc4ccccc4NC(=O)c4ccsc4C)nn3)cc1)CC2 | 59.6 | 10.9 | > 100 | 
COc1cc2c(cc1OC)CN(CCn1cc(CNc3ccccc3NC(=O)c3ccccn3)nn1)CC2 | > 100 | 3.88 |  | 
COc1cc2c(cc1OC)CN(CCc1ccc(-n3cc(CNc4ccccc4NC(=O)c4ccco4)nn3)cc1)CC2 | 58.4 | 11.2 | 25.8 | 
COc1cc2c(cc1OC)CN(CCc1ccc(-n3cc(CNc4ccccc4NC(=O)c4ccsc4)nn3)cc1)CC2 | 65.9 | 22.8 | > 100 | 
COc1cc2c(cc1OC)CN(CCc1ccc(-n3cc(CNc4ccccc4NC(=O)c4ccc(C)s4)nn3)cc1)CC2 | > 100 | 21.8 | > 100 | 
COc1cc2c(cc1OC)CN(CCc1ccc(NC(=O)c3cc(OC)c(OC)cc3NC(=O)c3cnc4ccccc4c3)cc1)CC2 | 30.1 | 42.3 | 18.4 | Ratio IC50 [9]: 4.12; Ratio IC50 [13]: 19.2; inhibition [5]: Dose-dependent effect; Ratio IC50 [14]: 2.4; Ratio IC50 [15]: 10.2
COc1cc2c(cc1OC)CN(CCn1cc(CNc3ccccc3NC(=O)c3ccco3)nn1)CC2 | > 100 | 1.28 |  | 
COc1cc2c(cc1OC)CN(CCn1cc(CNc3ccccc3NC(=O)c3cccnc3Cl)nn1)CC2 | > 100 | 1.28 |  | 
COc1cc2c(cc1OC)CN(CCc1ccc(-n3cc(CNc4ccccc4NC(=O)c4ccc5ccccc5n4)nn3)cc1)CC2 | 58.1 | 13.3 | > 100 | 
